Source: PubChem BioAssay (NCI)
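GI50: concentration for 50% inhibition of growth. TGI: total growth inhibition.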

What was measured:
Test in all cases: NCI anticancer screen, dose series, 384-well format; in the data active = GI50 below about 0.43 µM; inactive = the rest
[1] = test system: 786-0 renal
[2] = test system: A498 renal
[3] = test system: A549 NSCLC
[4] = test system: ACHN renal
[5] = test system: BT-549 breast
[6] = test system: CAKI-1 renal
[7] = test system: CCRF-CEM leukemia
[8] = test system: DU-145 prostate
[9] = test system: EKVX NSCLC
[10] = test system: HCT-116 colon
[11] = test system: HCT-15 colon
[12] = test system: HL-60(TB) leukemia
[13] = test system: HOP-62 NSCLC
[14] = test system: HOP-92 NSCLC
[15] = test system: HS 578T breast
[16] = test system: HT29 colon
[17] = test system: IGROV1 ovarian
[18] = test system: K-562 leukemia
[19] = test system: KM12 colon
[20] = test system: LOX IMVI melanoma
[21] = test system: M14 melanoma
[22] = test system: MALME-3M melanoma
[23] = test system: MCF7 breast
[24] = test system: MDA-MB-231 breast
[25] = test system: MDA-MB-435 melanoma
[26] = test system: MDA-MB-468 breast
[27] = test system: MOLT-4 leukemia
[28] = test system: NCI-H226 lung
[29] = test system: NCI-H23 lung
[30] = test system: NCI-H322M lung
[31] = test system: NCI-H522 lung
[32] = test system: NCI/ADR-RES ovarian
[33] = test system: OVCAR-3 ovarian
[34] = test system: OVCAR-4 ovarian
[35] = test system: OVCAR-5 ovarian
[36] = test system: OVCAR-8 ovarian
[37] = test system: PC-3 prostate
[38] = test system: RPMI-8226 leukemia
[39] = test system: RXF 393 renal
[40] = test system: SF-268 CNS
[41] = test system: SF-295 CNS
[42] = test system: SF-539 CNS
[43] = test system: SK-MEL-2 melanoma
[44] = test system: SK-MEL-28 melanoma
[45] = test system: SK-OV-3 ovarian
[46] = test system: SN12C renal
[47] = test system: SNB-19 CNS
[48] = test system: SNB-75 CNS
[49] = test system: SW-620 colon
[50] = test system: T-47D breast
[51] = test system: TK-10 renal
[52] = test system: U251 glioblastoma
[53] = test system: UACC-257 melanoma
[54] = test system: UACC-62 melanoma
[55] = test system: UO-31 renal
[56] = test system: COLO 205 colon
[57] = test system: HCC-2998 colon
[58] = test system: NCI-H460 NSCLC
[59] = test system: SK-MEL-5 melanoma

Cn1c(CCCC(=O)O)nc2cc(N(CCCl)CCCl)ccc21
10.3 µM: TGI [27]
inactive: GI50 [1] 90.6 µM | GI50 [2] > 100 µM | GI50 [3] > 100 µM | GI50 [4] 68.3 µM | GI50 [5] 57 µM | GI50 [6] 55.4 µM | GI50 [7] 17.9 µM | GI50 [8] > 100 µM | GI50 [9] > 100 µM | GI50 [10] 61.3 µM | GI50 [11] > 100 µM | GI50 [12] 17.3 µM | GI50 [13] 42 µM | GI50 [14] > 100 µM | GI50 [15] > 100 µM | GI50 [16] > 100 µM | GI50 [17] > 100 µM | GI50 [18] > 100 µM | GI50 [19] > 100 µM | GI50 [20] 88.3 µM | GI50 [21] 55.5 µM | GI50 [22] > 100 µM | GI50 [23] 71.3 µM | GI50 [24] > 100 µM | GI50 [25] > 100 µM | GI50 [26] 11.9 µM | GI50 [27] 3.2 µM | GI50 [28] 93.1 µM | GI50 [29] 60.3 µM | GI50 [30] > 100 µM | GI50 [31] 39.3 µM | GI50 [32] > 100 µM | GI50 [33] > 100 µM | GI50 [34] > 100 µM | GI50 [35] > 100 µM | GI50 [36] 69.8 µM | GI50 [37] > 100 µM | GI50 [38] 39.8 µM | GI50 [39] 41.7 µM | GI50 [40] 35.6 µM | GI50 [41] > 100 µM | GI50 [42] 50.4 µM | GI50 [43] > 100 µM | GI50 [44] > 100 µM | GI50 [45] > 100 µM | GI50 [46] 34.7 µM | GI50 [47] > 100 µM | GI50 [48] > 100 µM | GI50 [49] 72.7 µM | GI50 [50] > 100 µM | GI50 [51] > 100 µM | GI50 [52] 47.1 µM | GI50 [53] > 100 µM | GI50 [54] 31.8 µM | GI50 [55] > 100 µM
33.2 µM: TGI [12]
32.8 µM: TGI [26]
32.4 µM: TGI [7]
> 100 µM: TGI [1] | TGI [2] | TGI [3] | TGI [4] | TGI [5] | TGI [6] | TGI [8] | TGI [9] | TGI [10] | TGI [11] | TGI [13] | TGI [14] | TGI [15] | TGI [16] | TGI [17] | TGI [18] | TGI [19] | TGI [20] | TGI [21] | TGI [22] | TGI [23] | TGI [24] | TGI [25] | TGI [28] | TGI [29] | TGI [30] | TGI [31] | TGI [32] | TGI [33] | TGI [34] | TGI [35] | TGI [36] | TGI [37] | TGI [38] | TGI [39] | TGI [40] | TGI [41] | TGI [42] | TGI [43] | TGI [44] | TGI [45] | TGI [46] | TGI [47] | TGI [48] | TGI [49] | TGI [50] | TGI [51] | TGI [52] | TGI [53] | TGI [54] | TGI [55]

Cn1ncc(C#N)c1-c1ccc2c(c1)CN([C@H](CN)Cc1cccc(F)c1)C2=O
2.38 µM: TGI [27]
46.7 µM: TGI [55]
34.8 µM: TGI [29]
20.4 µM: TGI [19]
16.5 µM: TGI [41]
17.9 µM: TGI [5]
71.1 µM: TGI [13]
27 µM: TGI [31]
16.7 µM: TGI [2] | TGI [37]
14.6 µM: TGI [7]
33.3 µM: TGI [58]
47.2 µM: TGI [57]
74.7 µM: TGI [24]
43.7 µM: TGI [18]
26.8 µM: TGI [21]
75.1 µM: TGI [3]
43.3 µM: TGI [25]
32.4 µM: TGI [33]
65.9 µM: TGI [46]
58.5 µM: TGI [40]
39.1 µM: TGI [28]
31.4 µM: TGI [14]
> 100 µM: TGI [11] | TGI [20] | TGI [32] | TGI [34] | TGI [36]
20 µM: TGI [59]
14 µM: TGI [48]
94.5 µM: TGI [16]
31.1 µM: TGI [53]
26.1 µM: TGI [38]
inactive: GI50 [3] 12.2 µM | GI50 [4] 17.3 µM | GI50 [5] 0.943 µM | GI50 [6] 5.91 µM | GI50 [7] 0.675 µM | GI50 [56] 4.91 µM | GI50 [8] 16.5 µM | GI50 [9] 11.1 µM | GI50 [57] 11 µM | GI50 [10] 10.8 µM | GI50 [11] 16.3 µM | GI50 [12] 15.9 µM | GI50 [13] 23 µM | GI50 [14] 6.45 µM | GI50 [15] 1.57 µM | GI50 [16] 4.87 µM | GI50 [18] 15.3 µM | GI50 [19] 0.841 µM | GI50 [20] 27.6 µM | GI50 [21] 11.2 µM | GI50 [22] 1.76 µM | GI50 [23] 0.498 µM | GI50 [24] 21.8 µM | GI50 [25] 15.8 µM | GI50 [28] 14.4 µM | GI50 [29] 14.6 µM | GI50 [30] 16.9 µM | GI50 [58] 0.582 µM | GI50 [31] 13.3 µM | GI50 [32] > 100 µM | GI50 [33] 11.8 µM | GI50 [34] 35.7 µM | GI50 [36] 24.3 µM | GI50 [37] 0.436 µM | GI50 [38] 12.9 µM | GI50 [39] 0.433 µM | GI50 [40] 19.2 µM | GI50 [41] 0.668 µM | GI50 [44] 3.34 µM | GI50 [59] 6.5 µM | GI50 [45] 0.534 µM | GI50 [46] 17.6 µM | GI50 [47] 13.7 µM | GI50 [49] 27.5 µM | GI50 [51] 10.1 µM | GI50 [52] 11.1 µM | GI50 [53] 12.5 µM | GI50 [54] 4.27 µM | GI50 [55] 13.4 µM
40.8 µM: TGI [6]
67.3 µM: TGI [47]
25.4 µM: TGI [56]
21.2 µM: TGI [1]
23.2 µM: TGI [10] | TGI [45]
70.2 µM: TGI [30]
19.5 µM: TGI [50]
33.4 µM: TGI [42] | TGI [44]
93.9 µM: TGI [4]
42.8 µM: TGI [51]
active: GI50 [1] 0.324 µM | GI50 [2] 0.269 µM | GI50 [17] 0.0552 µM | GI50 [26] 0.0967 µM | GI50 [27] 0.129 µM | GI50 [42] 0.394 µM | GI50 [48] 0.299 µM | GI50 [50] 0.0502 µM
16.3 µM: TGI [23]
44.9 µM: TGI [8]
19.8 µM: TGI [15] | TGI [54]
82 µM: TGI [49]
10.4 µM: TGI [17]
3.28 µM: TGI [26]
14.8 µM: TGI [22]
68.7 µM: TGI [52]
29.5 µM: TGI [12]
11.9 µM: TGI [39]
40.3 µM: TGI [9]
